Assay results taken from PMC10350552, “Investigation of the GnRH antagonist degarelix isomerization in biological matrices” (Pharmacology Research & Perspectives, 2023).
Where a SMILES comes first, the peptide text is derived from it. [ ]: non-standard residue; d: D form. The star is where a group is joined. dPhe(4-NHCONH2) = NC(=O)Nc1ccc(C[C@@H](N)C(=O)O)cc1; Dihydroorotyl(S) = O=C1C[C@@H](C(=O)*)NC(=O)N1; dPhe(4-Cl) = N[C@H](Cc1ccc(Cl)cc1)C(=O)O; Phe(4-NH2) = Nc1ccc(C[C@H](N)C(=O)O)cc1; d2Nal = N[C@H](Cc1ccc2ccccc2c1)C(=O)O; Lys(iPr) = CC(C)NCCCC[C@H](N)C(=O)O; X1 = O=C1NC(=O)[C@H](CC(=O)*)N1; d3Pal = N[C@H](Cc1cccnc1)C(=O)O

Legend:
[1] = Stability in 4.5% human serum albumin (HSA) solution without warfarin; format: in vitro ADME; conditions: 37°C, 2000 ng/mL, up to 48 h
Source text: (§1) The solutions were shaken and centrifuged. […] All the experiments were repeated three times.

[2] = Stability in HSA solution with warfarin; format: in vitro ADME, human; conditions: 37°C, 2000 ng/mL, up to 48 h
Source text: as §1

in vitro = conditions: male, human, plasma, pH 7.8
Procedure: Degarelix or 5‐Hyd‐degarelix test solutions (10 μL of 180 μg/mL degarelix or 5‐Aph(Hyd)‐degarelix in 20% acetonitrile) were each mixed with 890 μL of human plasma, Dulbecco buffer (5 mM NaH2PO4, 20 mM Na2HPO4, 5 mM KCl, 120 mM NaCl, adjusted to pH 7.4 with NaOH), 4.5% human serum albumin solution (HSA solution), and human serum albumin solution with 0.21 mg/mL warfarin: 3960 μL HSA solution +40 μL warfarin stock solution (21 mg warfarin in 1 mL water)to a final concentration of 2000 ng/mL of each analyte and 0.2% of acetonitrile. […] The samples were then diluted with 10 μL of the solution of 0.1% of formic acid in 20% acetonitrile and 70 μL of acetonitrile. The solutions were shaken and centrifuged. To 50 μL of the supernatant, 20 μL of water and 0.2% of formic acid were added and the solution was used for HPLC analysis. All the experiments were repeated three times.
The ANALYST software was used to integrate all peaks automatically by use of the IntelliQuan algorithm and to calculate the calibration curves of degarelix and 5‐Aph(Hyd)‐degarelix by linear regression with a weighting of 1/x ^2. The parameters for peak integrations were adapted for all samples in each analytical batch. The ANALYST software was used to calculate the concentrations of the test and QC samples based on the corresponding calibration curves.

[3] = tested on: human serum albumin (HSA); conditions: cited from earlier work
Source text: After its approval by FDA in 2008, degarelix became the most widely used GnRH antagonist in patients with advanced prostate cancer.[17] The advantages of degarelix are its high affinity to the GnRH receptor, increased hydrophilicity, and decreased propensity to form gels. As a result, degarelix has better bioavailability than the previous GnRH antagonists. These improved characteristics are related to the presence of additional 4‐[(aminocarbonyl)amino]‐phenylalanine [Aph(Cbm)] and 4‐[(dihydroorotyl)amino]‐phenylalanine [Aph(Hor)] moieties, which afford multiple hydrogen‐bonding sites and permi ...

[4] = in vivo; cited from earlier work
[5] = tested on: human cytochrome P450 system; conditions: cited from earlier work

CC(=O)N[C@H](Cc1ccc2ccccc2c1)C(=O)N[C@H](Cc1ccc(Cl)cc1)C(=O)N[C@H](Cc1cccnc1)C(=O)N[C@@H](CO)C(=O)N[C@@H](Cc1ccc(NC(=O)C[C@@H]2NC(=O)NC2=O)cc1)C(=O)N[C@H](Cc1ccc(NC(N)=O)cc1)C(=O)N[C@@H](CC(C)C)C(=O)N[C@@H](CCCCNC(C)C)C(=O)N1CCC[C@H]1C(=O)N[C@H](C)C(N)=O [5‐Aph(Hyd)‐degarelix] (Ac-[d2Nal][dPhe(4-Cl)][d3Pal]S[Phe(4-NH2)](X1)[dPhe(4-NHCONH2)]L[Lys(iPr)]P[dA]-NH2)
Change in the 5-Aph(Hyd)-degarelix content ([1]; 5-Aph(Hyd)-degarelix in 4.5% HSA solution without warfarin): we did not see any change
Formation of 5-Aph(Hyd)-degarelix from degarelix ([1]; degarelix in 4.5% HSA solution without warfarin, HPLC-MS/MS): No 5‐Aph(Hyd)‐degarelix was observed
Change in the 5-Aph(Hyd)-degarelix content ([2]; 5-Aph(Hyd)-degarelix in HSA solution with warfarin): we did not see any change
Formation of 5-Aph(Hyd)-degarelix from degarelix ([2]; degarelix in 4.5% HSA solution with 0.21 mg/mL warfarin (equimolar to albumin), HPLC-MS/MS): No 5‐Aph(Hyd)‐degarelix was observed
remaining at 8 h, 2000 ng/mL (in vitro): 103%
remaining at 24 h, 2000 ng/mL (in vitro): 93%
remaining at 32 h, 2000 ng/mL (in vitro): 91%
remaining at 48 h, 2000 ng/mL (in vitro): 80%

CC(=O)N[C@H](Cc1ccc2ccccc2c1)C(=O)N[C@H](Cc1ccc(Cl)cc1)C(=O)N[C@H](Cc1cccnc1)C(=O)N[C@@H](CO)C(=O)N[C@@H](Cc1ccc(NC(=O)[C@@H]2CC(=O)NC(=O)N2)cc1)C(=O)N[C@H](Cc1ccc(NC(N)=O)cc1)C(=O)N[C@@H](CC(C)C)C(=O)N[C@@H](CCCCNC(C)C)C(=O)N1CCC[C@H]1C(=O)N[C@H](C)C(N)=O [degarelix] (Ac-[d2Nal][dPhe(4-Cl)][d3Pal]S[Phe(4-NH2)](Dihydroorotyl(S))[dPhe(4-NHCONH2)]L[Lys(iPr)]P[dA]-NH2)
Binding to human serum albumin (HSA) [3]: 76.3%
remaining at 8 h, 2000 ng/mL (in vitro): 104%
remaining at 24 h, 2000 ng/mL (in vitro): 92%
remaining at 32 h, 2000 ng/mL (in vitro): 91%
remaining at 48 h, 2000 ng/mL (in vitro): 74%
Time to reach the maximum concentration in the blood [4]: 37 to 42 h
Substrate for the human cytochrome P450 system [5]: not a substrate
